Measured values as given in patent US12129312B2, “Peptide compound, application thereof and composition containing same” (priority 2017, dated 2024).
Numbered stars: 1 amine (or outer) side, 2 acyl side, 3 side chain; on linkers, the order of the positions; unused ones are H or OH. Square brackets hold non-standard residues; d marks the D form. Peptide text beside a SMILES is read from it. * marks the point of attachment. X11 = O=C([C@@H](Cc1ccc(O)cc1)N(CCCc1ccccc1)[*:1])[*:2]; Diphenylacetyl = O=C(C(c1ccccc1)c1ccccc1)*; Benzoyl(3,5-(OH)2) = O=C(c1cc(O)cc(O)c1)*; Phe(4-Me) = Cc1ccc(C[C@H](N)C(=O)O)cc1; Pro(4,4-F2) = O=C(O)[C@@H]1CC(F)(F)CN1; X5 = O=C([C@H]1c2ccccc2CCN1[*:1])[*:2]; 1Nal = N[C@@H](Cc1cccc2ccccc12)C(=O)O; 2Nal = N[C@@H](Cc1ccc2ccccc2c1)C(=O)O; Pentanoyl(5-Ph) = O=C(CCCCc1ccccc1)*; X10 = CN(C)[C@H](Cc1ccc(O)cc1)C(=O)*; dNMeY = CN[C@H](Cc1ccc(O)cc1)C(=O)O; Hydrocinnamoyl = O=C(CCc1ccccc1)*; NMehLeu = CN[C@@H](CCC(C)C)C(=O)O; NMeF = CN[C@@H](Cc1ccccc1)C(=O)O; Tic = O=C(O)[C@@H]1Cc2ccccc2CN1; NMeL = CN[C@@H](CC(C)C)C(=O)O; X12 = O=C(Cc1cc(O)cc(O)c1)*; NMeS = CN[C@@H](CO)C(=O)O; hSer = N[C@@H](CCO)C(=O)O; Nle = CCCC[C@H](N)C(=O)O

biological target: T1, human Chemokine like receptor 1 (Homo sapiens, UniProt Q99788); experiment: Activation of Tango CMKLR1-bla U2OS cells (beta-lactamase FRET reporter); type: cell-based; conditions: not given
T1 construct: host or cells: U2OS (Tango CMKLR1-bla U2OS)
T1 sequence (Q99788 1-373): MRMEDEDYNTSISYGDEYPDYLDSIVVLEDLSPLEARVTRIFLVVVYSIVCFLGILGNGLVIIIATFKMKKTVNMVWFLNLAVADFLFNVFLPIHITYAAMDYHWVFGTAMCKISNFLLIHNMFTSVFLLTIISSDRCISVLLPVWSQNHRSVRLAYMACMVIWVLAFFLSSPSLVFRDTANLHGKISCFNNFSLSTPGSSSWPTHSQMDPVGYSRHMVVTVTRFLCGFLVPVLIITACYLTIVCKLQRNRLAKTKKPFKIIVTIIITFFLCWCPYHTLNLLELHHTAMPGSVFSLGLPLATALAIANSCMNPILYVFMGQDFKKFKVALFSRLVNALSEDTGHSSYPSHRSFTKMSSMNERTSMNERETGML
How it was run: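 Agonist mode in Tango CMKLR1-bla U2OS cells, 10000 cells/well seeded overnight, then 10-point 3-fold compound dilutions from 10 mM DMSO stock applied for 4 h at 37 °C, 5% CO2. Beta-lactamase reporter read with CCF4-AM FRET substrate; peptide (D-Tyr)-Phe-Leu-Pro-(D-Ser)-Gln-Phe-(D-Ala)-Tic-Ser served as positive control.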

SMILES | EC50 [nM]
CC(C)C[C@H](NC(=O)[C@H](Cc1ccccc1)NC(=O)[C@@H](Cc1ccc(O)cc1)NC(=O)C(c1ccccc1)c1ccccc1)C(=O)N1CCC[C@H]1C(=O)N[C@H](CO)C(=O)N[C@@H](CCC(N)=O)C(=O)N[C@@H](Cc1ccccc1)C(=O)N[C@H](C)C(=O)N1Cc2ccccc2C[C@H]1C(=O)N[C@@H](CO)C(=O)O [YW-78, diphenylacetyl-(D-Tyr)-Phe-Leu-Pro-(D-Ser)-Gln-Phe-(D-Ala)-Tic-Ser-OH] (Diphenylacetyl-[dY]FLP[dS]QF[dA][Tic]S-OH) | 26
CC(C)C[C@@H](C(=O)N1CCC[C@H]1C(=O)N[C@H](CO)C(=O)N[C@@H](CCC(N)=O)C(=O)N[C@@H](Cc1cccc2ccccc12)C(=O)N[C@H](C)C(=O)N1Cc2ccccc2C[C@H]1C(=O)N[C@@H](CO)C(=O)O)N(C)C(=O)[C@H](Cc1ccccc1)NC(=O)[C@H](N)Cc1ccc(O)cc1 [YW-165, (D-Tyr)-Phe-(NMe-Leu)-Pro-(D-Ser)-Gln-1Nal-(D-Ala)-Tic-Ser-OH] (H-[dY]F[NMeL]P[dS]Q[1Nal][dA][Tic]S-OH) | 1.5
CCCC[C@H](NC(=O)[C@H](Cc1ccccc1)NC(=O)[C@H](N)Cc1ccc(O)cc1)C(=O)N1CCC[C@H]1C(=O)N[C@H](CO)C(=O)N[C@@H](CCC(N)=O)C(=O)N[C@@H](Cc1ccccc1)C(=O)N[C@H](C)C(=O)N1Cc2ccccc2C[C@H]1C(=O)N[C@@H](CO)C(=O)O [YW-197, (D-Tyr)-Phe-Nle-Pro-(D-Ser)-Gln-Phe-(D-Ala)-Tic-Ser] (H-[dY]F[Nle]P[dS]QF[dA][Tic]S-OH) | 10
CC(C)CC[C@@H](C(=O)N1CCC[C@H]1C(=O)N[C@H](CO)C(=O)N[C@@H](CCC(N)=O)C(=O)N[C@@H](Cc1ccccc1)C(=O)N[C@H](C)C(=O)N1Cc2ccccc2C[C@H]1C(=O)N[C@@H](CO)C(=O)O)N(C)C(=O)[C@H](Cc1ccccc1)NC(=O)[C@H](N)Cc1ccc(O)cc1 [YW-101, (D-Tyr)-Phe-(NMe-HoLeu)-Pro-(D-Ser)-Gln-Phe-(D-Ala)-Tic-Ser-OH] (H-[dY]F[NMehLeu]P[dS]QF[dA][Tic]S-OH) | 2.9
CC(C)C[C@@H](C(=O)N1CC(F)(F)C[C@H]1C(=O)N[C@H](CO)C(=O)N[C@@H](CCC(N)=O)C(=O)N[C@@H](Cc1ccc2ccccc2c1)C(=O)N[C@H](C)C(=O)N1Cc2ccccc2C[C@H]1C(=O)N(C)[C@@H](CO)C(=O)O)N(C)C(=O)[C@H](Cc1ccccc1)NC(=O)[C@H](N)Cc1ccc(O)cc1 [YW-224, (D-Tyr)-Phe-(NMe-Leu)-Pro(diF)-(D-Ser)-Gln-2Nal-(D-Ala)-Tic-NMeSer] (H-[dY]F[NMeL][Pro(4,4-F2)][dS]Q[2Nal][dA][Tic][NMeS]-OH) | 1.3

same assay, conditions: determination by the method of Effect Embodiment 1; read-out: EC50

SMILES | EC50 [nM]
CC(C)C[C@H](NC(=O)[C@H](Cc1ccccc1)NC(=O)[C@@H](Cc1ccc(O)cc1)NCCCc1ccccc1)C(=O)N1CCC[C@H]1C(=O)N[C@H](CO)C(=O)N[C@@H](CCC(N)=O)C(=O)N[C@@H](Cc1ccccc1)C(=O)N[C@H](C)C(=O)N1Cc2ccccc2C[C@H]1C(=O)N[C@@H](CO)C(=O)O [YW-74, 3-Phenylpropyl-(D-Tyr)-Phe-Leu-Pro-(D-Ser)-Gln-Phe-(D-Ala)-Tic-Ser-OH] (H-[X11]FLP[dS]QF[dA][Tic]S-OH) | 6.2
CC(C)C[C@H](NC(=O)[C@H](Cc1ccccc1)NC(=O)[C@@H](Cc1ccc(O)cc1)NC(=O)CCCCc1ccccc1)C(=O)N1CCC[C@H]1C(=O)N[C@H](CO)C(=O)N[C@@H](CCC(N)=O)C(=O)N[C@@H](Cc1ccccc1)C(=O)N[C@H](C)C(=O)N1Cc2ccccc2C[C@H]1C(=O)N[C@@H](CO)C(=O)O [YW-76, 5-phenylvaleroyl-(D-Tyr)-Phe-Leu-Pro-(D-Ser)-Gln-Phe-(D-Ala)-Tic-Ser-OH] ({Pentanoyl(5-Ph)}-[dY]FLP[dS]QF[dA][Tic]S-OH) | 43
CC(C)C[C@H](NC(=O)[C@H](Cc1ccccc1)NC(=O)[C@@H](Cc1ccc(O)cc1)NC(=O)c1cc(O)cc(O)c1)C(=O)N1CCC[C@H]1C(=O)N[C@H](CO)C(=O)N[C@@H](CCC(N)=O)C(=O)N[C@@H](Cc1ccccc1)C(=O)N[C@H](C)C(=O)N1Cc2ccccc2C[C@H]1C(=O)N[C@@H](CO)C(=O)O [YW-79, 3,5-dihydroxybenzoyl-(D-Tyr)-Phe-Leu-Pro-(D-Ser)-Gln-Phe-(D-Ala)-Tic-Ser-OH] ({Benzoyl(3,5-(OH)2)}-[dY]FLP[dS]QF[dA][Tic]S-OH) | 4.7

Second part, the compound after the results:

EC50 [nM] | SMILES
80 | CC(C)C[C@H](NC(=O)[C@H](Cc1ccccc1)N(C)C(=O)[C@H](N)Cc1ccc(O)cc1)C(=O)N1CCC[C@H]1C(=O)N[C@H](CO)C(=O)N[C@@H](CCC(N)=O)C(=O)N[C@@H](Cc1ccccc1)C(=O)N[C@H](C)C(=O)N1Cc2ccccc2C[C@H]1C(=O)N[C@@H](CO)C(=O)O [YW-104, (D-Tyr)-(NMe-Phe)-Leu-Pro-(D-Ser)-Gln-Phe-(D-Ala)-Tic-Ser-OH] (H-[dY][NMeF]LP[dS]QF[dA][Tic]S-OH)
29 | CC(C)C[C@@H](C(=O)N1CCC[C@H]1C(=O)N[C@H](CO)C(=O)N[C@@H](CCC(N)=O)C(=O)N[C@@H](Cc1ccccc1)C(=O)N[C@H](C)C(=O)N1Cc2ccccc2C[C@H]1C(=O)N[C@@H](CCO)C(=O)O)N(C)C(=O)[C@H](Cc1ccccc1)NC(=O)[C@H](N)Cc1ccc(O)cc1 [YW-171, (D-Tyr)-Phe-(NMe-Leu)-Pro-(D-Ser)-Gln-Phe-(D-Ala)-Tic-HoSer-OH] (H-[dY]F[NMeL]P[dS]QF[dA][Tic][hSer]-OH)
34 | CN[C@H](Cc1ccc(O)cc1)C(=O)N[C@@H](Cc1ccccc1)C(=O)N[C@@H](CC(C)C)C(=O)N1CCC[C@H]1C(=O)N[C@H](CO)C(=O)N[C@@H](CCC(N)=O)C(=O)N[C@@H](Cc1ccccc1)C(=O)N[C@H](C)C(=O)N1CCc2ccccc2[C@@H]1C(=O)N[C@@H](CO)C(=O)O [YW-154, (D-NMe-Tyr)-Phe-Leu-Pro-(D-Ser)-Gln-Phe-(D-Ala)-D-Ti1c-Ser-OH] (H-[dNMeY]FLP[dS]QF[dA][X5]S-OH)
2.9 | CC(C)C[C@H](NC(=O)[C@H](Cc1ccccc1)NC(=O)[C@@H](Cc1ccc(O)cc1)NC(=O)Cc1cc(O)cc(O)c1)C(=O)N1CCC[C@H]1C(=O)N[C@H](CO)C(=O)N[C@@H](CCC(N)=O)C(=O)N[C@@H](Cc1ccccc1)C(=O)N[C@H](C)C(=O)N1Cc2ccccc2C[C@H]1C(=O)N[C@@H](CO)C(=O)O [YW-131, 3,5-Dihydroxyphenylacetyl-(D-Tyr)-Phe-Leu-Pro-(D-Ser)-Gln-Phe-(D-Ala)-Tic-Ser] (X12-[dY]FLP[dS]QF[dA][Tic]S-OH)
6.2 | Cc1ccc(C[C@H](NC(=O)[C@@H](C)NC(=O)[C@H](Cc2ccccc2)NC(=O)[C@H](CCC(N)=O)NC(=O)[C@@H](CO)NC(=O)[C@@H]2CCCN2C(=O)[C@H](CC(C)C)N(C)C(=O)[C@H](Cc2ccccc2)NC(=O)[C@H](N)Cc2ccc(O)cc2)C(=O)N[C@@H](CO)C(=O)O)cc1 [YW-205, (D-Tyr)-Phe-(NMe-Leu)-Pro-(D-Ser)-Gln-Phe-(D-Ala)-Phe(4-Me)-Ser] (H-[dY]F[NMeL]P[dS]QF[dA][Phe(4-Me)]S-OH)
42 | C[C@@H](NC(=O)[C@H](Cc1ccccc1)NC(=O)[C@H](CCC(N)=O)NC(=O)[C@@H](CO)NC(=O)[C@@H]1CCCN1C(=O)[C@H](Cc1ccccc1)N(C)C(=O)[C@H](Cc1ccccc1)NC(=O)[C@H](N)Cc1ccc(O)cc1)C(=O)N1Cc2ccccc2C[C@H]1C(=O)N[C@@H](CO)C(=O)O [YW-100, (D-Tyr)-Phe-(NMe-Phe)-Pro-(D-Ser)-Gln-Phe-(D-Ala)-Tic-Ser-OH] (H-[dY]F[NMeF]P[dS]QF[dA][Tic]S-OH)
1.2 | CN[C@H](Cc1ccc(O)cc1)C(=O)N[C@@H](Cc1ccccc1)C(=O)N(C)[C@@H](CC(C)C)C(=O)N1CCC[C@H]1C(=O)N[C@H](CO)C(=O)N[C@@H](CCC(N)=O)C(=O)N[C@@H](Cc1cccc2ccccc12)C(=O)N[C@H](C)C(=O)N1Cc2ccccc2C[C@H]1C(=O)N[C@@H](CO)C(=O)O [YW-168, (D-NMe-Tyr)-Phe-(NMe-Leu)-Pro-(D-Ser)-Gln-1Nal-(D-Ala)-Tic-Ser-OH] (H-[dNMeY]F[NMeL]P[dS]Q[1Nal][dA][Tic]S-OH)
2.6 | CC(C)C[C@@H](C(=O)N1CCC[C@H]1C(=O)N[C@H](CO)C(=O)N[C@@H](CCC(N)=O)C(=O)N[C@@H](Cc1ccccc1)C(=O)N[C@H](C)C(=O)N1Cc2ccccc2C[C@H]1C(=O)N[C@@H](CO)C(=O)O)N(C)C(=O)[C@H](Cc1ccccc1)NC(=O)[C@@H](Cc1ccc(O)cc1)N(C)C [YW-192, DiMe-(D-Tyr)-Phe-(NMe-Leu)-Pro-(D-Ser)-Gln-Phe-(D-Ala)-Tic-Ser] (X10-F[NMeL]P[dS]QF[dA][Tic]S-OH)
3 | CC(C)C[C@@H](C(=O)N1CCC[C@H]1C(=O)N[C@H](CO)C(=O)N[C@@H](CCC(N)=O)C(=O)N[C@@H](Cc1ccccc1)C(=O)N[C@H](C)C(=O)N1Cc2ccccc2C[C@H]1C(=O)N[C@@H](CO)C(N)=O)N(C)C(=O)[C@H](Cc1ccccc1)NC(=O)[C@@H](Cc1ccc(O)cc1)NC(=O)CCc1ccccc1 [YW-161, 3-phenylpropanoyl-(D-Tyr)-Phe-(NMe-Leu)-Pro-(D-Ser)-Gln-Phe-(D-Ala)-Tic-Ser-NH2] (Hydrocinnamoyl-[dY]F[NMeL]P[dS]QF[dA][Tic]S-NH2)
2.7 | CC(C)C[C@@H](C(=O)N1CCC[C@H]1C(=O)N[C@H](CO)C(=O)N[C@@H](CCC(N)=O)C(=O)N[C@@H](Cc1ccccc1)C(=O)N[C@H](C)C(=O)N1Cc2ccccc2C[C@H]1C(=O)N[C@@H](CO)C(N)=O)N(C)C(=O)[C@H](Cc1ccccc1)NC(=O)[C@H](N)Cc1ccc(O)cc1 [YW-190, (D-Tyr)-Phe-(NMe-Leu)-Pro-(D-Ser)-Gln-Phe-(D-Ala)-Tic-Ser-NH2] (H-[dY]F[NMeL]P[dS]QF[dA][Tic]S-NH2; N-terminus assumed)
